Measured values as given in US20230304010A1, “COMPOSITIONS AND METHODS FOR TREATING VIRAL INFECTIONS” (priority 2020, published 2023).

Experiments:
[1] = molecular target: ACE2:SARS-CoV-2 Spike interaction (UniProt P0DTC2+Q9BYF1); assay: biochemical; type: binding; details: for IC50: ACE2:SARS-CoV-2 Spike IC50
in vitro = details: uninfected Vero E6 cells
[2] = molecular target: SARS-CoV-2 Spike: ACE2 interaction (UniProt P0DTC2+Q9BYF1); assay: biochemical; type: binding; details: SARS-CoV-2 Spike:ACE2 IC50
[3] = tested on: SARS-CoV-2 Nucleocapsid gene; type: cell-based
[4] = Nanoparticle formation of peptides with ADGN-106: mean size and polydispersity (Zetasizer); type: physicochemical; details: 25° C.; for Mean Size (nm): peptide/ADGN-106 complexes; for PI: polydispersity index of peptide/ADGN-106 complexes
Source text: We then tested the ability of the different peptides to form nanoparticle organization in the presence of ADGN-106 or ADGN-100 peptide. […] Peptides were complexed with 5 or 10 molar excess of ADGN-106.
Throughout, for Residual Infection (%): test concentration or dose not given here.

ACE2:SARS-CoV-2 Spike interaction, sequence (Q9BYF1 18-740, one chain of several): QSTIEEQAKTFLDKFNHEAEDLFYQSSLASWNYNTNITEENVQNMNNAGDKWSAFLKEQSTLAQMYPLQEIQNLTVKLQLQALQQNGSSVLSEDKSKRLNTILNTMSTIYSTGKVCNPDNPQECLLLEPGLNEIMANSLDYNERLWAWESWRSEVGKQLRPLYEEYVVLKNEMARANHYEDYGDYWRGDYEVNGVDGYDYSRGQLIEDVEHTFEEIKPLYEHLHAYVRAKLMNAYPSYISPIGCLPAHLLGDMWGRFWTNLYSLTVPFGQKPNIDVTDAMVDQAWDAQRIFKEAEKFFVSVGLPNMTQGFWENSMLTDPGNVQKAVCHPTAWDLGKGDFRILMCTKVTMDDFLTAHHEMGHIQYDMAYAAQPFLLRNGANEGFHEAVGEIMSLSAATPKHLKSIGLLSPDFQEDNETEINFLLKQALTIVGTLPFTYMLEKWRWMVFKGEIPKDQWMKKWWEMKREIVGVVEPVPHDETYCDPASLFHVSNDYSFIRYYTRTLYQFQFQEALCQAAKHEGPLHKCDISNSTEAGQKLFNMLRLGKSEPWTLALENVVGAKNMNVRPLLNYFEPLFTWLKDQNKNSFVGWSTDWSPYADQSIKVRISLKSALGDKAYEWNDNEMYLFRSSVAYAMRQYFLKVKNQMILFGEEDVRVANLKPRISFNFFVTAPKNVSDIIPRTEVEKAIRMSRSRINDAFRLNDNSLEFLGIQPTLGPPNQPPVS
SARS-CoV-2 Spike: ACE2 interaction, sequence (Q9BYF1 18-740, one chain of several): as above

Molecule	IC50 [1]	IC50 [2]	IC50 [3]	also measured
CC(=O)N[C@@H](CCCCN)C(=O)N[C@H](C(=O)N[C@@H](Cc1ccccc1)C(=O)N[C@@H](CC(C)C)C(=O)N[C@@H](CC(=O)O)C(=O)N[C@@H](CCCCN)C(=O)N[C@@H](Cc1ccccc1)C(=O)N[C@@H](CC(N)=O)C(=O)N[C@@H](Cc1c[nH]cn1)C(=O)N[C@@H](CCC(=O)O)C(=O)N[C@@H](C)C(=O)N[C@@H](CCC(=O)O)C(=O)N[C@@H](CC(=O)O)C(=O)N[C@@H](CC(C)C)C(=O)N[C@@H](Cc1ccccc1)C(=O)NCCCCCC(=O)N[C@@H](CC(C)C)C(=O)N[C@@H](Cc1c[nH]c2ccccc12)C(=O)N[C@@H](CCCNC(=N)N)C(=O)N[C@@H](C)C(=O)N[C@@H](CC(C)C)C(=O)N[C@@H](Cc1c[nH]c2ccccc12)C(=O)N[C@@H](CCCNC(=N)N)C(=O)N[C@@H](CC(C)C)C(=O)N[C@@H](Cc1c[nH]c2ccccc12)C(=O)N[C@@H](CCCNC(=N)N)C(=O)N[C@@H](CO)C(=O)N[C@@H](CC(C)C)C(=O)N[C@@H](Cc1c[nH]c2ccccc12)C(=O)N[C@@H](CCCNC(=N)N)C(=O)N[C@@H](CC(C)C)C(=O)N[C@@H](CC(C)C)C(=O)N[C@@H](Cc1c[nH]c2ccccc12)C(=O)N[C@@H](CCCCN)C(N)=O)[C@@H](C)O [Seq34]	> 1000 nM	> 1000 nM	–	Residual Infection (%) (SARS-CoV-2): 100%; viability at 0.5 µM (in vitro): 98%
GGCTGATGAAACTCAAGCCTT (chemistry not given here) [DIVC-5]	–	–	> 500 nM	–
CSCC[C@H](NC(=O)[C@H](CC(N)=O)NC(C)=O)C(=O)N[C@H](C(=O)N[C@@H](CCC(N)=O)C(=O)NCC(=O)N[C@@H](Cc1ccccc1)C(=O)N[C@@H](Cc1c[nH]c2ccccc12)C(=O)N[C@@H](CCC(=O)O)C(=O)N[C@@H](CC(N)=O)C(=O)N1CCC[C@H]1C(=O)NCC(=O)NCC(=O)N1CCC[C@H]1C(=O)N[C@H](C(=O)N[C@@H](C)C(=O)N[C@@H](Cc1c[nH]c2ccccc12)C(=O)N[C@@H](CC(=O)O)C(=O)N[C@@H](CC(C)C)C(=O)NCC(=O)N[C@@H](CCCCN)C(=O)NCCCCCC(=O)N[C@@H](CC(C)C)C(=O)N[C@@H](Cc1c[nH]c2ccccc12)C(=O)N[C@@H](CCCNC(=N)N)C(=O)N[C@@H](C)C(=O)N[C@@H](CC(C)C)C(=O)N[C@@H](Cc1c[nH]c2ccccc12)C(=O)N[C@@H](CCCNC(=N)N)C(=O)N[C@@H](CC(C)C)C(=O)N[C@@H](Cc1c[nH]c2ccccc12)C(=O)N[C@@H](CCCNC(=N)N)C(=O)N[C@@H](CO)C(=O)N[C@@H](CC(C)C)C(=O)N[C@@H](Cc1c[nH]c2ccccc12)C(=O)N[C@@H](CCCNC(=N)N)C(=O)N[C@@H](CC(C)C)C(=O)N[C@@H](CC(C)C)C(=O)N[C@@H](Cc1c[nH]c2ccccc12)C(=O)N[C@@H](CCCCN)C(N)=O)[C@@H](C)O)[C@@H](C)O [Seq38]	103 ± 17 nM	214 nM	–	Residual Infection (%) (SARS-CoV-2): 80%; viability at 0.5 µM (in vitro): 68%; Mean Size (nm) [4]: 39 ± 10 nm; PI [4]: 0.25
GACCAGGAACTAATCAGACAA (chemistry not given here) [DIVC-2]	–	–	> 500 nM	–
GCAACAATCCATGAGCAGTGC (chemistry not given here) [DIVC-10]	–	–	28.4 nM	–
CC(C)C[C@H](NC(=O)[C@H](C)NC(=O)[C@H](CCCNC(=N)N)NC(=O)[C@H](Cc1c[nH]c2ccccc12)NC(=O)[C@@H](N)CC(C)C)C(=O)N[C@@H](Cc1c[nH]c2ccccc12)C(=O)N[C@@H](CCCNC(=N)N)C(=O)N[C@@H](CC(C)C)C(=O)N[C@@H](Cc1c[nH]c2ccccc12)C(=O)N[C@@H](CCCNC(=N)N)C(=O)N[C@@H](CO)C(=O)N[C@@H](CC(C)C)C(=O)N[C@@H](Cc1c[nH]c2ccccc12)C(=O)N[C@@H](CCCNC(=N)N)C(=O)N[C@@H](CC(C)C)C(=O)N[C@@H](CC(C)C)C(=O)N[C@@H](Cc1c[nH]c2ccccc12)C(=O)N[C@@H](CCCCN)C(=O)O [ADGN-106, reference compound]	–	–	–	CC50 (in vitro): 356000 ± 64000 nM; viability at 0.5 µM (in vitro): 84%
CSCC[C@H](NC(=O)[C@H](CCC(N)=O)NC(=O)[C@H](C)NC(=O)[C@H](CC(C)C)NC(=O)[C@@H](NC(=O)[C@H](CO)NC(=O)[C@H](CCC(N)=O)NC(=O)[C@H](CCC(=O)O)NC(=O)[C@H](CCCCN)NC(=O)[C@H](CC(C)C)NC(=O)[C@H](Cc1ccccc1)NC(=O)[C@H](C)NC(=O)[C@H](CO)NC(=O)[C@H](Cc1c[nH]c2ccccc12)NC(=O)[C@H](CCCCN)NC(=O)[C@@H]1CCCN1C(=O)[C@H](Cc1ccccc1)NC(=O)[C@H](CC(C)C)NC(=O)[C@H](CC(=O)O)NC(=O)[C@H](CCC(=O)O)NC(=O)[C@H](C)NC(=O)[C@H](CCC(=O)O)NC(=O)[C@H](Cc1c[nH]cn1)NC(=O)[C@H](CC(N)=O)NC(=O)[C@H](Cc1ccccc1)NC(=O)[C@H](CCCCN)NC(=O)[C@H](CC(=O)O)NC(=O)[C@H](CC(C)C)NC(=O)[C@H](Cc1ccccc1)NC(=O)[C@@H](NC(=O)[C@H](CCCCN)NC(=O)[C@H](C)NC(=O)[C@H](CCC(N)=O)NC(=O)[C@H](CCC(=O)O)NC(C)=O)[C@@H](C)O)[C@@H](C)O)C(=O)N[C@@H](Cc1ccc(O)cc1)C(=O)NCC(=O)NCCCCCC(=O)N[C@@H](CC(C)C)C(=O)N[C@@H](Cc1c[nH]c2ccccc12)C(=O)N[C@@H](CCCNC(=N)N)C(=O)N[C@@H](C)C(=O)N[C@@H](CC(C)C)C(=O)N[C@@H](Cc1c[nH]c2ccccc12)C(=O)N[C@@H](CCCNC(=N)N)C(=O)N[C@@H](CC(C)C)C(=O)N[C@@H](Cc1c[nH]c2ccccc12)C(=O)N[C@@H](CCCNC(=N)N)C(=O)N[C@@H](CO)C(=O)N[C@@H](CC(C)C)C(=O)N[C@@H](Cc1c[nH]c2ccccc12)C(=O)N[C@@H](CCCNC(=N)N)C(=O)N[C@@H](CC(C)C)C(=O)N[C@@H](CC(C)C)C(=O)N[C@@H](Cc1c[nH]c2ccccc12)C(=O)N[C@@H](CCCCN)C(N)=O [Seq39]	68.4 ± 10 nM	55.2 nM	–	increase of potency/efficiency by covalent coupling to ADGN peptide [1]: 1.4 folds; Mean Size (nm) [4]: 48.5 ± 5 nm; PI [4]: 0.29
GACTTCCCTATGGTGCTAACA (chemistry not given here) [DIVC-4]	–	–	254 nM	–
CC(=O)N[C@@H](CCCCN)C(=O)N[C@H](C(=O)N[C@@H](Cc1ccccc1)C(=O)N[C@@H](CC(C)C)C(=O)N[C@@H](CC(=O)O)C(=O)N[C@@H](CCCCN)C(=O)N[C@@H](Cc1ccccc1)C(=O)N[C@@H](CC(N)=O)C(=O)N[C@@H](Cc1c[nH]cn1)C(=O)N[C@@H](CCC(=O)O)C(=O)N[C@@H](C)C(=O)N[C@@H](CCC(=O)O)C(=O)N[C@@H](CC(=O)O)C(=O)N[C@@H](CC(C)C)C(=O)N[C@@H](Cc1ccccc1)C(=O)N[C@@H](Cc1ccc(O)cc1)C(=O)N[C@@H](CO)C(=O)NCCCCCC(=O)N[C@@H](CC(C)C)C(=O)N[C@@H](Cc1c[nH]c2ccccc12)C(=O)N[C@@H](CCCNC(=N)N)C(=O)N[C@@H](C)C(=O)N[C@@H](CC(C)C)C(=O)N[C@@H](Cc1c[nH]c2ccccc12)C(=O)N[C@@H](CCCNC(=N)N)C(=O)N[C@@H](CC(C)C)C(=O)N[C@@H](Cc1c[nH]c2ccccc12)C(=O)N[C@@H](CCCNC(=N)N)C(=O)N[C@@H](CO)C(=O)N[C@@H](CC(C)C)C(=O)N[C@@H](Cc1c[nH]c2ccccc12)C(=O)N[C@@H](CCCNC(=N)N)C(=O)N[C@@H](CC(C)C)C(=O)N[C@@H](CC(C)C)C(=O)N[C@@H](Cc1c[nH]c2ccccc12)C(=O)N[C@@H](CCCCN)C(N)=O)[C@@H](C)O [Seq35]	728 nM	546 nM	–	Mean Size (nm) [4]: 44 ± 10 nm; PI [4]: 0.22
GCAACTGAGGGAGCCTTGAAT (chemistry not given here) [DIVC-1]	–	–	> 500 nM	–
GCAGACGTGGTCCAGAACAAA (chemistry not given here) [DIVC-7]	–	–	147 nM	–
AAGCATATTGACGCATACAAA (chemistry not given here) [DIVC-9]	–	–	394 nM	–
